Usually inhibition stands for the change of the read-out against control, counted positive when it falls.

For the assay, the target named is S. aureus GyrB ATPase (Staphylococcus aureus, UniProt P0A0K8). In words: S. aureus (SAU) GyrB ATPase inhibition, malachite green phosphate detection (E. coli GyrA + S. aureus GyrB). It counts as biochemical. To be noted: compound concentration of 1.0 μM unless otherwise noted; average value where assay was carried out more than once; read-out: S. aureus (SAU) GyrB ATPase % Inhibition. The essentials: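 E. coli GyrA and S. aureus GyrB (1.25 nM each) with 500 μM ATP and 5 μg/ml sheared salmon sperm DNA in 50 mM Hepes pH 7.5, 8.0 mM MgCl2. Released phosphate detected with ammonium molybdate/malachite green at 650 nm; 2% DMSO as 0% and 2 μM novobiocin as 100% inhibition; IC50 from 10 concentrations.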
Chain of S. aureus GyrB ATPase (P0A0K8 whole entry): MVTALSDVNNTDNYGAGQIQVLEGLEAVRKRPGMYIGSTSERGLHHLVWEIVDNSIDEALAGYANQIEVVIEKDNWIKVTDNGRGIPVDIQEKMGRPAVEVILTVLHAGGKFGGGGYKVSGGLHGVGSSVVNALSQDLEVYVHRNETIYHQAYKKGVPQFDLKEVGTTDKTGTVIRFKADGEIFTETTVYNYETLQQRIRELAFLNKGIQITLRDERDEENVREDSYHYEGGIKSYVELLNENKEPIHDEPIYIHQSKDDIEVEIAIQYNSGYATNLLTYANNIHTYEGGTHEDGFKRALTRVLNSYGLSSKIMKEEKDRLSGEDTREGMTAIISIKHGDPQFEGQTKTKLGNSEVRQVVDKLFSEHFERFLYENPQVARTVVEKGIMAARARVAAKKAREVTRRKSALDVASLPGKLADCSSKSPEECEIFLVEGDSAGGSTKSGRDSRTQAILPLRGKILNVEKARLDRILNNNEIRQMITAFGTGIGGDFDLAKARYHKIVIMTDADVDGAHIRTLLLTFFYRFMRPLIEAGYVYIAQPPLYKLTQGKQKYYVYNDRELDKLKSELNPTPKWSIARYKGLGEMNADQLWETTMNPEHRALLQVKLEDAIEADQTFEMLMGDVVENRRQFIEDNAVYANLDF
Chain of S. aureus GyrB ATPase (P0AES4 whole entry, further chain): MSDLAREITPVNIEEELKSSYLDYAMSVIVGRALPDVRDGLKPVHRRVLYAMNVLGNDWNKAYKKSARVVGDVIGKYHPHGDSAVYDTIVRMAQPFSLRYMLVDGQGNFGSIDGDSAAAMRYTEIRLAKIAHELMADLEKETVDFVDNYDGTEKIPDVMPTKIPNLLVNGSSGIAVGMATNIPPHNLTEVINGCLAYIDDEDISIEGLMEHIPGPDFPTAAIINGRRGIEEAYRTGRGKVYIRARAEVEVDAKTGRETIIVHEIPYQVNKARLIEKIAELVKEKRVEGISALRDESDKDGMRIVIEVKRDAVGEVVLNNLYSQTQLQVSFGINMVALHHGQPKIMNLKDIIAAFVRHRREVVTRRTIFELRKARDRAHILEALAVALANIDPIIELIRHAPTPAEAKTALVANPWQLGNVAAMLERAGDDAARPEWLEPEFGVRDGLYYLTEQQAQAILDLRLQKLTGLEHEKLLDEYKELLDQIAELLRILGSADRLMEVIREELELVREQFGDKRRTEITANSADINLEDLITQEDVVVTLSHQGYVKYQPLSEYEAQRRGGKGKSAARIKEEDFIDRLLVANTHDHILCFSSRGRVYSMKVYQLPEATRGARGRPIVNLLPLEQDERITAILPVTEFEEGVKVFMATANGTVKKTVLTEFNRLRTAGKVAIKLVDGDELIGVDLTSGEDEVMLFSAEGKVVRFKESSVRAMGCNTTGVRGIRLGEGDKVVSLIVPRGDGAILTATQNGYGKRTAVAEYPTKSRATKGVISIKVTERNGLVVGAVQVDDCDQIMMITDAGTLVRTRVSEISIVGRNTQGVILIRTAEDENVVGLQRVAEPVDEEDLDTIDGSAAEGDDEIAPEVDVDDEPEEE
On to `CCNC(=O)Nc1cc(-c2nc(C(F)(F)F)cs2)c(-c2cnc(OCCOC)c(-c3n[nH]c(=O)o3)c2)cn1` [Example 254], for which the inhibition at 1 µM worked out at 97%.

Turning to `CCNC(=O)Nc1cc(-c2nc(C(F)(F)F)cs2)c(-c2cc(-c3nnc(C)o3)c[n+]([O-])c2)cn1` [Example 255, 6′-(3-ethylureido)-5-(5-methyl-1,3,4-oxadiazol-2-yl)-4′-(4-(trifluoromethyl)thiazol-2-yl)-3,3′-bipyridine 1-oxide], the inhibition at 1 µM is 98%.

For `CCNC(=O)Nc1cc(-c2nc(C(F)(F)F)cs2)c(-c2cncc(-c3nnc(C(F)F)[nH]3)c2)cn1` [Example 256, 1-(5′-(5-(difluoromethyl)-4H-1,2,4-triazol-3-yl)-4-(4-(trifluoromethyl)thiazol-2-yl)-3,3′-bipyridin-6-yl)-3-ethylurea], the inhibition at 1 µM came out at 103%.

In the case of `CCNC(=O)Nc1cc(-c2nc(C(F)(F)F)cs2)c(-c2cncc(-c3nnc(C(F)(F)F)[nH]3)c2)cn1` [Example 257, 1-ethyl-3-(5′-(5-(trifluoromethyl)-4H-1,2,4-triazol-3-yl)-4-(4-(trifluoromethyl)thiazol-2-yl)-3,3′-bipyridin-6-yl)urea], the inhibition at 1 µM stood at 102%.

As for `CCNC(=O)Nc1cc(-c2nc(C(F)(F)F)cs2)c(-c2cnc(N)c(-c3nnc(C)o3)c2)cn1` [Example 258, 1-(6′-amino-5′-(5-methyl-1,3,4-oxadiazol-2-yl)-4-(4-(trifluoromethyl)thiazol-2-yl)-3,3′-bipyridin-6-yl)-3-ethylurea], the inhibition at 1 µM was determined as 96%.

As for `CCNC(=O)Nc1cc(-c2nc(C(F)(F)F)cs2)c(-c2cc[n+]([O-])c(-c3nnc(C)o3)c2)cn1` [Example 259, 6-(3-ethylureido)-2′-(5-methyl-1,3,4-oxadiazol-2-yl)-4-(4-(trifluoromethyl)thiazol-2-yl)-3,4′-bipyridine 1′-oxide], the inhibition at 1 µM worked out at 95%.

Consider `CCNC(=O)Nc1cc(-c2nc(C(F)(F)F)cs2)c(-c2cc(-c3n[nH]c(=O)o3)cnc2N)cn1` [Example 260, 1-(2′-amino-5′-(5-oxo-4,5-dihydro-1,3,4-oxadiazol-2-yl)-4-(4-(trifluoromethyl)thiazol-2-yl)-3,3′-bipyridin-6-yl)-3-ethylurea], for which the inhibition at 1 µM turned out to be 96%.

Consider `CCNC(=O)Nc1cc(-c2nc(C(F)(F)F)cs2)c(-c2c[nH]c(=O)c(-c3nnc(C)o3)c2)cn1` [Example 261, 1-ethyl-3-(5-(5-(5-methyl-1,3,4-oxadiazol-2-yl)-6-oxo-1,6-dihydropyridin-3-yl)-4-(4-(trifluoromethyl)thiazol-2-yl)pyridin-2-yl)urea], for which the inhibition at 1 µM was 96%.

For `CCNC(=O)Nc1cc(-c2nc(-c3cccc(OC)n3)cs2)c(-c2cncc(-c3n[nH]c(=O)o3)n2)cn1` [Example 262, 1-ethyl-3-(4-(4-(6-methoxypyridin-2-yl)thiazol-2-yl)-5-(6-(5-oxo-4,5-dihydro-1,3,4-oxadiazol-2-yl)pyrazin-2-yl)pyridin-2-yl)urea], the inhibition at 1 µM is 97%.

As for `CCNC(=O)Nc1cc(-c2nc(C(F)(F)F)cs2)c(-c2cncc(-c3nnc(C(C)(C)O)o3)c2)cn1` [Example 263, 1-ethyl-3-(5′-(5-(2-hydroxypropan-2-yl)-1,3,4-oxadiazol-2-yl)-4-(4-(trifluoromethyl)thiazol-2-yl)-3,3′-bipyridin-6-yl)urea], the inhibition at 1 µM was determined as 100%.

As to `CCNC(=O)Nc1cc(-c2nc(C(F)(F)F)cs2)c(-c2cncc(-c3nnc(C(C)(C)OC(C)=O)o3)c2)cn1` [Example 264, 2-(5-(6′-(3-ethylureido)-4′-(4-(trifluoromethyl)thiazol-2-yl)-3,3′-bipyridin-5-yl)-1,3,4-oxadiazol-2-yl)propan-2-yl acetate], the inhibition at 1 µM is 98%.

For the compound `CCNC(=O)Nc1cc(-c2nc(C(F)(F)F)cs2)c(-c2cncc(-c3nnc(CC(C)=O)o3)c2)cn1` [Example 265, 1-ethyl-3-(5′-(5-(2-oxopropyl)-1,3,4-oxadiazol-2-yl)-4-(4-(trifluoromethyl)thiazol-2-yl)-3,3′-bipyridin-6-yl)urea], the inhibition at 1 µM was 101%.

For `CCNC(=O)Nc1cc(-c2nc(C(F)(F)F)cs2)c(-c2cncc(-c3nnc(COCc4ccccc4)o3)c2)cn1` [Example 266, 1-(5′-(5-(benzyloxymethyl)-1,3,4-oxadiazol-2-yl)-4-(4-(trifluoromethyl)thiazol-2-yl)-3,3′-bipyridin-6-yl)-3-ethylurea], the inhibition at 1 µM was 98%.

With `CCNC(=O)Nc1cc(-c2nc(C(F)(F)F)cs2)c(-c2cncc(-c3nnc(N(CC)CC)o3)c2)cn1` [Example 267, 1-(5′-(5-(diethylamino)-1,3,4-oxadiazol-2-yl)-4-(4-(trifluoromethyl)thiazol-2-yl)-3,3′-bipyridin-6-yl)-3-ethylurea], the inhibition at 1 µM was determined as 98%.

For the compound `CCNC(=O)Nc1cc(-c2nc(C(F)(F)F)cs2)c(-c2cncc(-c3nnc(CN(C)C)o3)c2)cn1` [Example 268, 1-(5′-(5-((dimethylamino)methyl)-1,3,4-oxadiazol-2-yl)-4-(4-(trifluoromethyl)thiazol-2-yl)-3,3′-bipyridin-6-yl)-3-ethylurea], the inhibition at 1 µM was found to be 98%.

`CCNC(=O)Nc1cc(-c2nc(C(F)(F)F)cs2)c(-c2cncc(-c3nnc(COC)o3)c2)cn1` [Example 270, 1-ethyl-3-(5′-(5-(methoxymethyl)-1,3,4-oxadiazol-2-yl)-4-(4-(trifluoromethyl)thiazol-2-yl)-3,3′-bipyridin-6-yl)urea]: the inhibition at 1 µM was 97%.

Regarding `CCNC(=O)Nc1cc(-c2nc(C(F)(F)F)cs2)c(-c2cncc(-c3nnc(OCC)o3)c2)cn1` [Example 271, 1-(5′-(5-ethoxy-1,3,4-oxadiazol-2-yl)-4-(4-(trifluoromethyl)thiazol-2-yl)-3,3′-bipyridin-6-yl)-3-ethylurea], the inhibition at 1 µM stood at 100%.

`CCNC(=O)Nc1cc(-c2nc(C(F)(F)F)cs2)c(-c2cncc(-c3nnco3)c2)cn1` [Example 272, 1-(5′-(1,3,4-oxadiazol-2-yl)-4-(4-(trifluoromethyl)thiazol-2-yl)-3,3′-bipyridin-6-yl)-3-ethylurea]: the inhibition at 1 µM came to 90%.

Regarding `CCNC(=O)Nc1cc(-c2nc(C(F)(F)F)cs2)c(-c2cncc(-c3nnc(C4(O)CC4)o3)c2)cn1` [Example 273, 1-ethyl-3-(5′-(5-(1-hydroxycyclopropyl)-1,3,4-oxadiazol-2-yl)-4-(4-(trifluoromethyl)thiazol-2-yl)-3,3′-bipyridin-6-yl)urea], the inhibition at 1 µM came to 98%.

Take `CCNC(=O)Nc1cc(-c2nc(C(F)(F)F)cs2)c(-c2cncc(-c3nnc(C(=O)N(C)C)o3)c2)cn1` [Example 274, 5-(6′-(3-ethylureido)-4′-(4-(trifluoromethyl)thiazol-2-yl)-3,3′-bipyridin-5-yl)-N,N-dimethyl-1,3,4-oxadiazole-2-carboxamide]: the inhibition at 1 µM was 99%.

As for `CCNC(=O)Nc1cc(-c2nc(C(F)(F)F)cs2)c(-c2cncc(-c3nnc(C(C)O)o3)c2)cn1` (stereo not shown) [Example 275, 1-ethyl-3-(5′-(5-(1-hydroxyethyl)-1,3,4-oxadiazol-2-yl)-4-(4-(trifluoromethyl)thiazol-2-yl)-3,3′-bipyridin-6-yl)urea], the inhibition at 1 µM is 98%.

For the compound `CCNC(=O)Nc1cc(-c2nc(C(F)(F)F)cs2)c(-c2cncc(-c3nnc(COC(C)=O)o3)c2)cn1` [Example 276, (5-(6′-(3-ethylureido)-4′-(4-(trifluoromethyl)thiazol-2-yl)-3,3′-bipyridin-5-yl)-1,3,4-oxadiazol-2-yl)methyl acetate], the inhibition at 1 µM was 98%.

With `CCNC(=O)Nc1cc(-c2nc(C(F)(F)F)cs2)c(-c2cncc(-c3nnc(COCCOC)o3)c2)cn1` [Example 278, 1-ethyl-3-(5′-(5-((2-methoxyethoxy)methyl)-1,3,4-oxadiazol-2-yl)-4-(4-(trifluoromethyl)thiazol-2-yl)-3,3′-bipyridin-6-yl)urea], the inhibition at 1 µM turned out to be 68%.

In the case of `CCNC(=O)Nc1cc(-c2nc(C(F)(F)F)cs2)c(-c2cncc(-c3nnc([C@H](N)C(C)C)o3)c2)cn1` [Example 280, (R)-1-(5′-(5-(1-amino-2-methylpropyl)-1,3,4-oxadiazol-2-yl)-4-(4-(trifluoromethyl)thiazol-2-yl)-3,3′-bipyridin-6-yl)-3-ethylurea], the inhibition at 1 µM turned out to be 95%.

With `CCNC(=O)Nc1cc(-c2nc(C(F)(F)F)cs2)c(-c2cncc(-c3nnc(CN)o3)c2)cn1` [Example 281, 1-(5′-(5-(aminomethyl)-1,3,4-oxadiazol-2-yl)-4-(4-(trifluoromethyl)thiazol-2-yl)-3,3′-bipyridin-6-yl)-3-ethylurea], the inhibition at 1 µM worked out at 94%.

Turning to `CCNC(=O)Nc1cc(-c2nc(C(F)(F)F)cs2)c(-c2cncc(C3=NNC(=O)CO3)c2)cn1` [Example 282, 1-ethyl-3-(5′-(5-oxo-5,6-dihydro-4H-1,3,4-oxadiazin-2-yl)-4-(4-(trifluoromethyl)thiazol-2-yl)-3,3′-bipyridin-6-yl)urea], the inhibition at 1 µM is 96%.

As to `CCNC(=O)Nc1cc(-c2nc(C(F)(F)F)cs2)c(-c2cncc(-c3nnc(C)n3N)c2)cn1` [Example 283, 1-(5′-(4-amino-5-methyl-4H-1,2,4-triazol-3-yl)-4-(4-(trifluoromethyl)thiazol-2-yl)-3,3′-bipyridin-6-yl)-3-ethylurea], the inhibition at 1 µM came out at 94%.

Turning to `CCNC(=O)Nc1cc(-c2cn(Cc3ccccc3)nn2)c(-c2cc(-c3n[nH]c(=O)o3)ccn2)cn1` [Example 288], the inhibition at 1 µM was found to be 91%.

For the origin of these results see patent US20120101100A1 (priority 2008, published 2012).
